Columns and labels:
Assay type in all cases: cell-based, human
[1] = system: SEM-type gastric cancer cell line; assay: Cell viability drug screen, AUC summary over SEM-type lines
Experimental: An FDA-approved small-molecule pharmacological compound (#L1300) and an anticancer compound for research (#L2000) were purchased from Selecckchem and a 10 mM solution was prepared in DMSO. A total of 1,345 compounds were tested the cell viability of the seven EMT gastric cancer cell lines.
Cells cultured for cell-based drug assay were inoculated into a 96-well white optical plate (Corning) at 5×10^3 cells per well. After 24 hours after inoculation, a 2.5 MJT (primary screen) or a half-log 12-serial diluent (secondary screen) of the pharmacological compound contained in DMSO is added to the cells with a robot using a BioMek FXp liquid processor (Beckman) to add to the cells at 50 mM. The final drug concentration in the 5 ns range and the DMSO specification control (0.5%) were calculated. The cells were then further incubated at 37° C. in a 5% CO2 incubator for 72 hours prior to measuring cell viability using the extra-GLO assay kit (Promega). The luminescent properties were measured after 15 min incubation at room temperature using a plate stacker equipped with a plate stacker. The normalized viability for the DMSO-based control was measured to generate a cell line-specific 12-point dose-response curve for each pharmacological compound, and then the area under the curve (AUC) was calculated using a trapezoidal method.

[2] = system: non-SEM-type gastric cancer cell line; assay: Cell viability drug screen, AUC summary over non-SEM-type lines; details: in the non-SEM-type gastric cancer cell line
OCUM1 = assay: Cell viability drug screen, 12-point dose-response AUC; details: OCUM1 cells; 72 hours; 12-point dose-response
Procedure, shortened: (§1)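 Luminescent viability readings, taken 15 min after reagent addition at room temperature, were normalized to the 0.5% DMSO control to build 12-point dose-response curves. Trapezoidal integration gave the AUC. Cells had been plated at 5×10^3 per well and then exposed to half-log dilutions for 72 h.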

MKN1 = assay: as above; details: MKN1 cells; 72 hours; 12-point dose-response
Procedure, shortened: as §1

YCC2 = assay: as above; details: YCC2 cells; 72 hours; 12-point dose-response
Procedure, shortened: as §1

NCI_N87 = assay: as above; details: NCI_N87 cells; 72 hours; 12-point dose-response
Procedure, shortened: as §1

SNU16 = assay: as above; details: SNU16 cells; 72 hours; 12-point dose-response
Procedure, shortened: as §1

SNU719 = assay: as above; details: SNU719 cells; 72 hours; 12-point dose-response
Procedure, shortened: as §1

NCC19 = assay: as above; details: NCC19 cells; 72 hours; 12-point dose-response
Procedure, shortened: as §1

SNU1750 = assay: as above; details: SNU1750 cells; 72 hours; 12-point dose-response
Procedure, shortened: as §1

NCC20 = assay: as above; details: NCC20 cells; 72 hours; 12-point dose-response
Procedure, shortened: as §1

SNU620 = assay: as above; details: SNU620 cells; 72 hours; 12-point dose-response
Procedure, shortened: as §1

SNU668 = assay: as above; details: SNU668 cells; 72 hours; 12-point dose-response
Procedure, shortened: as §1

SNU1 = assay: as above; details: SNU1 cells; 72 hours; 12-point dose-response
Procedure, shortened: as §1

YCC3 = assay: as above; details: YCC3 cells; 72 hours; 12-point dose-response
Procedure, shortened: as §1

YCC11 = assay: as above; details: YCC11 cells; 72 hours; 12-point dose-response
Procedure, shortened: as §1

SNU1967 = assay: as above; details: SNU1967 cells; 72 hours; 12-point dose-response
Procedure, shortened: as §1

NCC59 = assay: as above; details: NCC59 cells; 72 hours; 12-point dose-response
Procedure, shortened: as §1

SNU484 = assay: as above; details: SNU484 cells; 72 hours; 12-point dose-response
Procedure, shortened: as §1

MKN28 = assay: as above; details: MKN28 cells; 72 hours; 12-point dose-response
Procedure, shortened: as §1

NCC24 = assay: as above; details: NCC24 cells; 72 hours; 12-point dose-response
Procedure, shortened: as §1

MKN74 = assay: as above; details: MKN74 cells; 72 hours; 12-point dose-response
Procedure, shortened: as §1

SNU216 = assay: as above; details: SNU216 cells; 72 hours; 12-point dose-response
Procedure, shortened: as §1

Hs746T = assay: as above; details: Hs746T cells; 72 hours; 12-point dose-response
Procedure, shortened: as §1

AGS = assay: as above; details: AGS cells; 72 hours; 12-point dose-response
Procedure, shortened: as §1

SNU638 = assay: as above; details: SNU638 cells; 72 hours; 12-point dose-response
Procedure, shortened: as §1

MKN45 = assay: as above; details: MKN45 cells; 72 hours; 12-point dose-response
Procedure, shortened: as §1

KATO3 = assay: as above; details: KATO3 cells; 72 hours; 12-point dose-response
Procedure, shortened: as §1

SK4 = assay: as above; details: SK4 cells; 72 hours; 12-point dose-response
Procedure, shortened: as §1

SNU601 = assay: as above; details: SNU601 cells; 72 hours; 12-point dose-response
Procedure, shortened: as §1

FU97 = assay: as above; details: FU97 cells; 72 hours; 12-point dose-response
Procedure, shortened: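 Trapezoidal AUC of a 12-point, DMSO-normalized dose-response curve. Luminescent viability was measured after 72 h of exposure at 37° C to half-log serial dilutions (0.5% DMSO control), dosed 24 h after plating FU97 cells at 5×10^3 per well.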

SMILES | normalized viability AUC [1] | AUC value [2] | area under the viability curve (AUC), normalized (OCUM1) | area under the viability curve (AUC), normalized (MKN1) | area under the viability curve (AUC), normalized (YCC2) | area under the viability curve (AUC), normalized (NCI_N87) | area under the viability curve (AUC), normalized (SNU16) | area under the viability curve (AUC), normalized (SNU719) | area under the viability curve (AUC), normalized (NCC19) | area under the viability curve (AUC), normalized (SNU1750) | area under the viability curve (AUC), normalized (NCC20) | area under the viability curve (AUC), normalized (SNU620) | area under the viability curve (AUC), normalized (SNU668) | area under the viability curve (AUC), normalized (SNU1) | area under the viability curve (AUC), normalized (YCC3) | area under the viability curve (AUC), normalized (YCC11) | area under the viability curve (AUC), normalized (SNU1967) | area under the viability curve (AUC), normalized (NCC59) | area under the viability curve (AUC), normalized (SNU484) | area under the viability curve (AUC), normalized (MKN28) | also measured
Cc1cnc(NC(=O)Nc2cc(Br)c(C)cc2OC[C@@H]2CNCCO2)cn1 [LY2603618] | negative | high | −0.6831 | −1.023 | 0.04045 | 0.8771 | 1.467 | 2.404 | 1.2209 | −0.4819 | 0.01673 | 0 | 0.1713 | −0.3399 | 0.2305 | −2.027 | −0.9616 | 0.9326 | 0.3141 | −0.1902 | area under the viability curve (AUC), normalized (NCC24): −1.445; area under the viability curve (AUC), normalized (MKN74): −0.9084; area under the viability curve (AUC), normalized (SNU216): 0.2462; area under the viability curve (AUC), normalized (Hs746T): −0.107; area under the viability curve (AUC), normalized (AGS): −0.3593; area under the viability curve (AUC), normalized (SNU638): −0.05048; area under the viability curve (AUC), normalized (MKN45): −0.9472; area under the viability curve (AUC), normalized (KATO3): 1.256; area under the viability curve (AUC), normalized (SK4): −1.698; area under the viability curve (AUC), normalized (SNU601): 0.2367; area under the viability curve (AUC), normalized (FU97): 0.7111
C[C@@H]1O[C@@H](O[C@H]2C[C@@H](O)[C@]3(CO)[C@H]4[C@H](O)C[C@]5(C)[C@@H](C6=CC(=O)OC6)CC[C@]5(O)[C@@H]4CC[C@]3(O)C2)[C@H](O)[C@H](O)[C@H]1O [Oubain, Ouabain] | negative | high | 0.1113 | −1.223 | −0.6785 | 0.9192 | 2.229 | 5.038 | 0.3874 | −0.7374 | 0.2365 | 0 | −1.026 | −0.4741 | 4.209 | −0.3494 | 0.9873 | 1.567 | −2.03 | −0.5183 | area under the viability curve (AUC), normalized (NCC24): −0.2417; area under the viability curve (AUC), normalized (MKN74): −0.9472; area under the viability curve (AUC), normalized (SNU216): 0.2009; area under the viability curve (AUC), normalized (Hs746T): 0.3093; area under the viability curve (AUC), normalized (AGS): −0.4351; area under the viability curve (AUC), normalized (SNU638): 1.054; area under the viability curve (AUC), normalized (MKN45): −0.3665; area under the viability curve (AUC), normalized (KATO3): 4.783; area under the viability curve (AUC), normalized (SK4): −1.414; area under the viability curve (AUC), normalized (SNU601): 2.702; area under the viability curve (AUC), normalized (FU97): −0.3889
Nc1ccc(-c2ccc3ncc4ccc(=O)n(-c5cccc(C(F)(F)F)c5)c4c3c2)cn1 [Torin, Torin 2] | negative | high | −0.1127 | −1.574 | −0.06527 | 0.3078 | 0.9803 | 3.841 | 1.614 | −0.787 | −1.598 | 0.3965 | 0.4391 | 1.392 | 1.399 | −2.299 | −0.557 | 1.584 | −0.505 | 0.8861 | area under the viability curve (AUC), normalized (NCC24): 0; area under the viability curve (AUC), normalized (MKN74): −0.1868; area under the viability curve (AUC), normalized (SNU216): −0.4964; area under the viability curve (AUC), normalized (Hs746T): −0.7581; area under the viability curve (AUC), normalized (AGS): −1.701; area under the viability curve (AUC), normalized (SNU638): 0.3739; area under the viability curve (AUC), normalized (MKN45): 0.6704; area under the viability curve (AUC), normalized (KATO3): 2.66; area under the viability curve (AUC), normalized (SK4): −2.722; area under the viability curve (AUC), normalized (SNU601): 0.4104; area under the viability curve (AUC), normalized (FU97): −1.526
